Measurements as given in patent US20070087400A1, “Covalent tethering of functional groups to proteins and substrates therefor” (priority 2004, published 2007).
Where two headings read alike, the source gives them in different places.

Assays:
[1] = test system: DhaA.H272 mutants, i.e. H272F/G/A/Q; assay: In vitro binding and pretreatment blocking, SDS-PAGE; design: species or system Rhodococcus rhodochrous
Text: FIG. 10 illustrates that pretreatment of a mutant DhaA with a substrate, biotin-C10H21NO2—Cl, blocks binding of another substrate. DhaA.WT-lanes 1 and 2; DhaA.H272 mutants: F, lanes 3 and 4; G, lanes 5 and 6; A, lanes 7 and 8; and Q, lanes 9 and 10. Samples 2, 4, 6, 8, and 10 were pretreated with biotin-C10H21NO2—Cl.
(§1) Then the proteins were resolved on SDS-PAGE.

CHO-K1 cells [2] = assay: Toxicity of Cl-alkanes, CellTiter-Glo Luminescence Cell Viability Assay; type: cell-based
Method: To study the toxicity of Cl-alkanes, CHO-K1 cells were plated in 96 well plates to a density of 5,000 cells per well. […] Viability of the cells was measured with CellTiter-Glo™ Luminescence Cell Viability Assay (Promega) according to the manufacturer's protocol. Generally, 100 μl of CellTiter-Glo™ reagent was added directly to the cells and the luminescence was recorded at 10 minutes using a DYNEX MLX microtiter plate luminometer.

CHO-K1 cells [3] = assay: Permeability of cell membrane to substrates (uptake and wash-out)
Method: (§2) Fresh media was then added to cells, and the cells were returned to the CO2 incubator at 37° C. The level of fluorescence in cells in 96 well plates was measured on fluorescent plate reader CytoFluor II (Beckman) at Eex/Eem equal 480/520 nm and 540/575 nm for carboxyfluorescein-and carboxytetramethylrhodamine-modified substrates, respectively. Fluorescent images of the cells were taken on inverted epifluorescent microscope Axiovert-100 (Carl Zeiss) with filter sets appropriate for detection of FITC and carboxytetramethylrhodamine.

E. coli = assay: Permeability of plasma membrane of prokaryotic cells to substrates
[4] = Tethering of R.Luc-DhaA fusions to streptavidin-coated plates via biotin Cl-alkane; conditions: pretreatment of R.Luc-connector-DhaA.H272F
Method: Translated proteins were contacted with biotin-C10H21N1O2—Cl substrate at 25 μM (final concentration), for 60 minutes at room temperature. Unbound biotin-C10H21N1O2—Cl was removed by gel-filtration on Sephadex G-25 prepackaged columns (Amersham Biosciences). Collected fractions of R.Luc-connector-DhaA fusions were placed in SA-coated 96-well plate for 1 hour at room temperature, unbound proteins were washed out and luciferase activity was measured.

DhaA.WT = DhaA.WT (Rhodococcus rhodochrous, UniProt P0A3G2); assay: Hydrolysis of Cl-alkanes, pH-indicator dye (phenol red) assay; type: biochemical
Text: To study the effect of a point mutation on the activity of DhaA (WT or mutant) hydrolysis of Cl-alkanes, a pH-indicator dye system as described by Holloway et al. (1998) was employed.

DhaA.H272F = DhaA.H272F (Rhodococcus rhodochrous, UniProt P0A3G2, H272F); assay: In vitro binding of Cl-alkanes with functional groups, SDS-PAGE with fluoroimager or HRP-streptavidin; conditions: dose dependent, 0.04-125 μM tested
Text: as §1

CHO-K1 cells [5] = test system: CHO-K1 cells
Method: as §2

[6] = target: tetracysteine domain in a recombinant protein; conditions: cited from earlier work
streptavidin = streptavidin (Streptomyces avidinii, UniProt P22629); conditions: surface plasmon resonance; cited from earlier work

N-{2-[2-(6-Chlorohexyloxy)-ethoxy]-ethyl}-tetramethylrhodamine-5-(and -6)-amide
binding to DhaA.H272F/G/A/Q [1]: bound
toxicity after a 4 hour treatment (CHO-K1 cells [2]; 100 μM (the highest concentration tested)): no toxicity
maximum non-toxic concentration (CHO-K1 cells [2]; 24 hour treatment): 6.25 µM
IC50 (CHO-K1 cells [2]; 24 hour treatment, read-out: IC50 of reduction of relative luminescence): ~100 µM
permeability of plasma membrane of CHO-K1 cells (CHO-K1 cells [3]): permeable
permeability of plasma membrane of E. coli (E. coli): permeable
decrease of efficiency of capturing by pretreatment with non-biotinylated substrate [4]: about 80%

OCCCCCCCCCCCl [1-Cl-alkane-10-decanol]
initial rate of hydrolysis (IRH) (DhaA.WT; first 60 seconds after enzyme addition): much higher than the IRH of 1-Cl-decane

CCCCCl [1-Cl-butane]
activity of the wild-type enzyme with the substrate (DhaA.WT; 0.1 mg/ml of enzyme and 10 mM substrate at pH 7.0-8.2): 5 units/mg of protein

O=C(CCCC[C@@H]1SC[C@@H]2NC(=O)N[C@@H]21)NCCOCCOCCCCCCCl [biotin-C10H21NO2—Cl]
concentration at which binding to DhaA.H272F could be detected (DhaA.H272F): 0.2 µM
permeability of plasma membrane of CHO-K1 cells (CHO-K1 cells [5]): permeable
permeability of plasma membrane of E. coli (E. coli): permeable

O=C1OC2(c3ccccc31)c1ccc(O)c([As]3SCCS3)c1Oc1c2ccc(O)c1[As]1SCCS1 [FLASH, 4′,5′-bis(1,3,2-dithioarsolan-2-yl)fluorescein]
dissociation constant [6]: nanomolar or lower

O=C(O)CCCC[C@@H]1SC[C@@H]2NC(=O)N[C@@H]21 [biotin]
on-rate (streptavidin): 5e+06 M⁻¹ s⁻¹

O=C(NCCOCCOCCCCCCCl)c1ccc(-c2c3ccc(=O)cc-3oc3cc(O)ccc23)c(C(=O)O)c1 [N-{2-[2-(6-Chlorohexyloxy)-ethoxyl-ethyl}-fluorescein-5-amide]
permeability of plasma membrane of CHO-K1 cells (CHO-K1 cells [3]): did not cross the plasma membrane
